Measured values taken from patent US9481654B2, “Compositions and methods for inhibition of the JAK pathway” (Rigel Pharmaceuticals, Inc., priority 2006, dated 2016).

The compounds below were run on IFNγ induced ICAM-1 (CD54) up-regulation in A549 lung epithelial cells (JAK/Stat pathway) (assay: A549 Epithelial Line Stimulated with IFNγ (ICAM-1 surface expression, flow cytometry)). Conditions: Homo sapiens, A549, Table III Example 5.
Assay type: cell-based, human
Description: The activity of the compounds of the invention may additionally be characterized by assaying the effect of the 2,4-pyrimidinediamine compounds described herein on A549 lung epithelial cells and U937 cells. A549 lung epithelial cells and U937 cells up-regulate ICAM-1 (CD54) surface expression in response to a variety of different stimuli. Therefore, using ICAM-1 expression as readout, test compound effects on different signaling pathways can be assessed in the same cell type. Stimulation with IL-1β through the IL-1β receptor activates the TRAF6/NFκB pathway resulting in up-regulation of ICAM-1. IFNγ induces ICAM-1 up-regulation through activation of the JAK1/JAK2 pathway. The up-regulation of ICAM-1 can be quantified by flow cytometry across a compound dose curve and EC50 values are calculated. Exemplary assays of this type are described in greater detail in Examples 5 and 6.
A549 lung epithelial cells up-regulate ICAM-1 (CD54) surface expression in response to a variety of different stimuli. Therefore, using ICAM-1 expression as readout, compound effects on different signaling pathways can be assessed in the same cell type. IFNγ up-regulates ICAM-1 through activation of the JAK/Stat pathway. In this example, the up-regulation of ICAM-1 by IFNγ was assessed.
The A549 lung epithelial carcinoma cell line originated from the American Type Culture Collection. Routine culturing was with F12K media (Mediatech Inc., Lenexa, Kans., Cat. No. 10-025-CV) with 10% fetal bovine serum, 100 I.U. penicillin and […] streptomycin (complete F12k media). Cells were incubated in a humidified atmosphere of 5% CO2 at 37° C. Prior to use in the assay, A549 cells were washed with PBS and trypsinized (Mediatech Inc., Cat. No. 25-052-CI) to lift the cells. The trypsin cell suspension was neutralized with complete F12K media and centrifuged to pellet the cells. The cell pellet was resuspended in complete F12K media at a concentration of 2.0×10^5/mL. Cells were seeded at 20,000 per well, 100 μL total volume, in a flat bottom tissue culture plate and allowed to adhere overnight.
On day two, A549 cells were pre-incubated with a 2,4-pyrimidinediamine test compound or DMSO (control) (Sigma-Aldrich, St. Louis, Mo., Catalog No. D2650) for 1 hour. The cells were then stimulated with IFNγ (75 ng/mL) (Peprotech Inc., Rocky Hill, N.J., Cat. No. 300-02) and allowed to incubate for 24 hours. The final test compound dose range was 30 μM to 14 nM in 200 μL F12K media containing 5% FBS, 0.3% DMSO.
On day three, the cell media was removed and the cells were washed with 200 μL PBS (phosphate buffered saline). Each well was trypsinized to dissociate the cells, then neutralized by addition of 200 μL complete F12K media. Cells were pelleted and stained with an APC conjugated mouse anti-human ICAM-1 (CD54) (BD Pharmingen, San Diego, Calif., Catalog #559771) antibody for 20 minutes at 4° C. Cells were washed with ice cold FACS buffer (PBS+2% FBS) and surface ICAM-1 expression was analyzed by flow cytometry. Detection was performed using a BD LSR I System Flow Cytometer, purchased from BD Biosciences of San Jose, Calif. Events were gated for live scatter and the geometric mean was calculated (Becton-Dickinson CellQuest software version 3.3, Franklin Lakes, N.J.). Geometric means were plotted against the compound concentration to generate a dose response curve.
Work on C#CCNS(=O)(=O)Cc1ccc(Nc2nc(Nc3cccc(S(N)(=O)=O)c3)ncc2F)cc1 [Compound I-4, N2-(3-Aminosulfonylphenyl)-5-fluoro-N4-[4-(prop-2-ynylaminosulfonylmethyl)phenyl]-2,4-pyrimidinediamine] yielded an IC50 of 18.2 µM.
Work on C#CCNS(=O)(=O)Cc1ccc(Nc2nc(Nc3ccc(C)c(S(N)(=O)=O)c3)ncc2F)cc1 [Compound I-5, N2-(3-Aminosulfonyl-4-methylphenyl)-5-fluoro-N4-[4-(prop-2-ynylaminosulfonylmethyl)phenyl]-2,4-pyrimidinediamine] yielded an IC50 of 56.6 µM.

Same assay, conditions: Table III Example 5
In the case of CCS(=O)(=O)NCc1ccc(Nc2nc(Nc3ccc(C)c(S(N)(=O)=O)c3)ncc2F)cc1 [Compound I-10, N2-(3-aminosulfonyl-4-methyl)phenyl-N4-(4-ethylsulfonylaminomethyl)phenyl-5-fluoro-2,4-pyrimidinediamine], the IC50 is reported as 29.5 µM.
For CCS(=O)(=O)NCc1cccc(Nc2nc(Nc3cccc(S(N)(=O)=O)c3)ncc2F)c1 [Compound I-12, N2-(3-aminosulfonyl)phenyl-N4-(3-ethylsulfonylaminomethyl)phenyl-5-fluoro-2,4-pyrimidinediamine], the IC50 was 4.57 µM.
In the case of CCS(=O)(=O)NCc1cccc(Nc2nc(Nc3ccc(C)c(S(N)(=O)=O)c3)ncc2F)c1 [Compound I-13, N2-(3-aminosulfonyl-4-methyl)phenyl-N4-(3-ethylsulfonylaminomethyl)phenyl-5-fluoro-2,4-pyrimidinediamine], the IC50 is reported as 3.63 µM.
CCS(=O)(=O)NCCc1ccc(Nc2nc(Nc3ccc(C)c(S(N)(=O)=O)c3)ncc2F)cc1 [Compound I-16, N2-(3-aminosulfonyl-4-methyl)phenyl-N4-[4-(2-ethylsulfonylamino)ethyl]phenyl-5-fluoro-2,4-pyrimidinediamine] gave an IC50 of 9.01 µM.
CCS(=O)(=O)NCc1ccc(Nc2nc(Nc3cccc(S(N)(=O)=O)c3)ncc2C)cc1 [Compound I-21, N2-(3-aminosulfonyl)phenyl-N4-(4-ethylsulfonylaminomethyl)phenyl-5-methyl-2,4-pyrimidinediamine] was tested, and the IC50 was 2.49 µM.
CCS(=O)(=O)N[C@@H](C)c1ccc(Nc2nc(Nc3cccc(S(N)(=O)=O)c3)ncc2F)cc1 [Compound I-27, N2-(3-aminosulfonyl)phenyl-N4-[4-(1S-ethylsulfonylamino)ethyl]phenyl-5-fluoro-2,4-pyrimidinediamine] gave an IC50 of 5.84 µM.
CCS(=O)(=O)N[C@H](C)c1ccc(Nc2nc(Nc3cccc(S(N)(=O)=O)c3)ncc2F)cc1 [Compound I-30, N2-(3-aminosulfonyl)phenyl-N4-[4-(1R-ethylsulfonylamino)ethyl]phenyl-5-fluoro-2,4-pyrimidinediamine] gave an IC50 of 6.1 µM.
Cc1ccc(Nc2ncc(F)c(Nc3cccc(CNS(=O)(=O)C4CC4)c3)n2)cc1S(N)(=O)=O [Compound I-34, N2-(3-aminosulfonyl-4-methyl)phenyl-N4-(3-cyclopropylsulfonylaminomethyl)phenyl-5-fluoro-2,4-pyrimidinediamine] gave an IC50 of 5.7 µM.
In the case of Cc1ccc(Nc2ncc(F)c(Nc3ccc(CNS(=O)(=O)c4cccs4)cc3)n2)cc1S(N)(=O)=O [Compound I-37, N2-(3-aminosulfonyl-4-methyl)phenyl-5-fluoro-N4-[4-(thiophen-2-yl)sulfonylaminomethyl]phenyl-2,4-pyrimidinediamine], the IC50 is reported as 27.7 µM.
In the case of CCS(=O)(=O)NCCc1ccc(Nc2nc(Nc3cccc(S(N)(=O)=O)c3)ncc2C)cc1 [Compound I-39, N2-(3-aminosulfonyl)phenyl-N4-[4-(2-ethylsulfonylamino)ethyl]phenyl-5-methyl-2,4-pyrimidinediamine], the IC50 is reported as 3.75 µM.
In the case of CCS(=O)(=O)NCCc1ccc(Nc2nc(Nc3ccc(C)c(S(N)(=O)=O)c3)ncc2C)cc1 [Compound I-40, N2-(3-aminosulfonyl-4-methyl)phenyl-N4-[4-(2-ethylsulfonylamino)ethyl]phenyl-5-methyl-2,4-pyrimidinediamine], the IC50 is reported as 3.49 µM.
With Cc1ccc(Nc2ncc(C)c(Nc3ccc(CNS(=O)(=O)C4CC4)cc3)n2)cc1S(N)(=O)=O [Compound I-47, N2-(3-aminosulfonyl-4-methyl)phenyl-N4-(4-cyclopropylsulfonylaminomethyl)phenyl-5-methyl-2,4-pyrimidinediamine] the IC50 was 2.89 µM.
NS(=O)(=O)c1ccc(Nc2ncc(F)c(Nc3ccc(CNS(=O)(=O)CC(F)(F)F)cc3)n2)cc1 [Compound I-48, N2-(4-aminosulfonyl)phenyl-5-fluoro-N4-(4-trifluoroethylsulfonylaminomethyl)phenyl-2,4-pyrimidinediamine] gave an IC50 of 29.9 µM.
With NS(=O)(=O)c1cccc(Nc2ncc(F)c(Nc3ccc(CNS(=O)(=O)CC(F)(F)F)cc3)n2)c1 [Compound I-49, N2-(3-aminosulfonyl)phenyl-5-fluoro-N4-(4-trifluoroethylsulfonylaminomethyl)phenyl-2,4-pyrimidinediamine] the IC50 was 78.9 µM.
Cc1ccc(Nc2ncc(F)c(Nc3ccc(CNS(=O)(=O)CC(F)(F)F)cc3)n2)cc1S(N)(=O)=O [Compound I-50, N2-(3-aminosulfonyl-4-methyl)phenyl-5-fluoro-N4-(4-trifluoroethylsulfonylaminomethyl)phenyl-2,4-pyrimidinediamine] showed an IC50 of 9.35 µM.
Cc1cnc(Nc2cccc(S(N)(=O)=O)c2)nc1Nc1cccc(CNS(=O)(=O)C2CC2)c1 [Compound I-51, N2-(3-aminosulfonyl)phenyl-N4-(3-cyclopropylsulfonylaminomethyl)phenyl-5-methyl-2,4-pyrimidinediamine] gave an IC50 of 2.8 µM.
Cc1ccc(Nc2ncc(C)c(Nc3cccc(CNS(=O)(=O)C4CC4)c3)n2)cc1S(N)(=O)=O [Compound I-52, N2-(3-aminosulfonyl-4-methyl)phenyl-N4-(3-cyclopropylsulfonylaminomethyl)phenyl-5-methyl-2,4-pyrimidinediamine] gave an IC50 of 2.55 µM.
With Cc1cnc(Nc2cccc(S(N)(=O)=O)c2)nc1Nc1ccc(CCNS(=O)(=O)C2CC2)cc1 [Compound I-54, N2-(3-aminosulfonyl)phenyl-N4-[4-(2-cyclopropylsulfonylamino)ethyl]phenyl-5-methyl-2,4-pyrimidinediamine] the IC50 was 4.69 µM.
Cc1ccc(Nc2ncc(C)c(Nc3ccc(CCNS(=O)(=O)C4CC4)cc3)n2)cc1S(N)(=O)=O [Compound I-55, N2-(3-aminosulfonyl-4-methyl)phenyl-N4-[4-(2-cyclopropylsulfonylamino)ethyl]phenyl-5-methyl-2,4-pyrimidinediamine] showed an IC50 of 3.88 µM.
Cc1ccc(Nc2ncc(F)c(Nc3ccc(CNS(=O)(=O)C(C)C)cc3)n2)cc1S(N)(=O)=O [Compound I-67, N2-(3-aminosulfonyl-4-methyl)phenyl-5-fluoro-N4-(4-isopropylsulfonylaminomethyl)phenyl-2,4-pyrimidinediamine] gave an IC50 of 3.29 µM.
NS(=O)(=O)c1ccc(Nc2ncc(F)c(Nc3ccc(CNS(=O)(=O)C4CCCC4)cc3)n2)cc1 [Compound I-68, N2-(4-aminosulfonyl)phenyl-N4-(4-cyclopentylsulfonylaminomethyl)phenyl-5-fluoro-2,4-pyrimidinediamine] showed an IC50 of 4.95 µM.
Compound NS(=O)(=O)c1cccc(Nc2ncc(F)c(Nc3ccc(CNS(=O)(=O)C4CCCC4)cc3)n2)c1 [Compound I-69, N2-(3-aminosulfonyl)phenyl-N4-(4-cyclopentylsulfonylaminomethyl)phenyl-5-fluoro-2,4-pyrimidinediamine] has an IC50 of 7.76 µM.
